pIC50: −log10 of the molar value. Like-named read-outs stand apart in the source and are kept apart here.
Columns and labels:
MM1.S cells = test: CellTiter-Glo cell viability assay, MM1.S cells; format: cell-based, human; conditions: Homo sapiens; MM1.S cells, 72 hours treatment; read-out: IC50 in MM1.S
Method: Cell viability in the presence of varying concentrations of the above listed compounds at different time points was used to assess cytotoxicity and the effect of the compounds on cell proliferation.
(§1) Cell Viability Assay—Cell viability was measured by the CellTiter-GlO® cell viability assay from Promega (Madison, Wis.). The CellTiter-GlO® Luminescent Cell Viability Assay is a homogeneous method to determine the number of viable cells in culture based on quantitation of the ATP present, which signals the presence of metabolically active cells. Following treatment, CellTiter-GlO® is added to treatment wells and incubated at 37° C. luminescence values were measured at using a Molecular Devices Spectramax microplate reader
(§2) Single Agent Studies—Cells were grown to 70% confluency, trypsinized, counted, and seeded in 96 well flat-bottom plates at a final concentration of 2.5×10^3-5×10^3 cells/well (Day 0). Cells were allowed to incubate in growth media for 24 hours. Treatment with the test agents or standard agents began on Day 1 and continued for 72 hours. At the 72 hour timepoint, treatment containing media was removed. Viable cell numbers are quantified by the CellTiter-GlO® cell viability assay as described above. Results from these studies were used to calculate an IC50 value (concentration of drug that inhibits cell growth by 50 percent of control) for each compound.
Data Collection—For single agent and combination studies, data from each experiment was collected and expressed as % Cell Growth using the following calculation: Cell Growth=(ftest/fvehicle)×100
Where ftest is the fluorescence of the tested sample, and fvehicle is the fluorescence of the vehicle in which the drug is dissolved. Dose response graphs and IC50 values were generated using Prism 6 software (GraphPad) using the following equation: […]
Where X is the logarithm of concentration and Y is the response. Y starts at the Bottom and goes to Top with a sigmoid shape.
as §1, with “CellTiter-Glo®” for “CellTiter-GlO®”, “assay” for “assay from”, “reader.” for “reader”
as §2, with “agents” for “agents or standard agents”, “72-hour time point, treatment-containing” for “72 hour timepoint, treatment containing”, “CellTiter-Glo®” for “CellTiter-GlO®”, “above. Experiments were run with triplicate concentrations to determine growth inhibitory activity.” for “above.”
Data Collection—For single agent and combination studies, data from each experiment was collected and expressed as % Cell Growth using the following calculation: % Cell Growth=(ftest/fvehicle)×100
Where ftest is the luminescence of the tested sample, and fvehicle is the luminescence of the vehicle in which the drug is dissolved. Dose response graphs and IC50 values were generated using Prism 6 software (GraphPad).

Permeability (PAMPA) = format: in vitro ADME; conditions: read-out: Permeabiltiy (PAMPA)
S9 in vitro half-life = format: in vitro ADME; conditions: S9 fraction
[1] = Pharmacokinetic studies in the mouse; format: in vivo
Method: Plasma samples were collected from healthy mice and analyzed for levels of compound ID #1, ID #2, and ID #3 and reported in Table 5. In brief, compounds were individually and accurately weighed out to produce a stock solution in Dimethyl-sulfoxide (DMSO) at a concentration of 2 mg/mL and stored at −20° C. From the stock solution, a working stock was prepared by diluting it in Methanol-Water 50:50 (v/v) at 20 μg/mL for calibration curve preparation and stored at 4° C. Standards used for quantitation and quality control samples (QC's) were prepared on the same day of sample processing using blank plasma obtained from non-treated mice. For each analyte, standards were prepared through serial dilution of the working stock at concentrations of 0.1, 0.5, 1.0, 10, 50, 100, 500 and 1000 ng/mL; QC's were prepared at intermediate concentrations of 0.75, 7.5, 75 and 750 ng/mL. Plasma samples were stored at −80° C. until ready for analysis and then placed on ice for thawing. An aliquot of 20 μL for samples, standards and QC's, were transferred into a 96-well extraction plate according to a pre-defined layout. Appropriate volume of Methanol-Formic Acid 99.9-0.1 containing internal standard (Verapamil at 25 ng/mL) was added to each well and samples were extracted under vacuum. Eluent was then transferred into a LCMS plate for analysis using a suitable column for separation and MRM detection. Concentration of analytes was calculated based on the calibration curve and analyzed for pharmacokinetic parameters by using Non-compartmental analysis (NCA) using WinNonlin Phoenix software. Parameters such as Cmax, Tmax, half-life, AUC(0-last), AUC(0-∞), volume of distribution (Vss) and clearance (Cl/F) were reported.
The analogs were tested for pharmacokinetic analysis in the mouse with doses of 1 mg/kg for intravenous (IV) route and 5 mg/kg for oral (P0) route. […] Overall exposure following IV dose also favored compound ID #1 with AUCO-∞ 1488.1 hr*ng/mL whereas compound ID #2 and ID #3 were 329.1 and 1193.7 hr*ng/mL, respectively.

HDAC1 = HDAC1 (Homo sapiens (Human), UniProt Q13547); test: In vitro HDAC enzyme inhibition, mobility shift; format: biochemical; conditions: purified enzyme
Sequence of HDAC1 (Q13547 whole entry): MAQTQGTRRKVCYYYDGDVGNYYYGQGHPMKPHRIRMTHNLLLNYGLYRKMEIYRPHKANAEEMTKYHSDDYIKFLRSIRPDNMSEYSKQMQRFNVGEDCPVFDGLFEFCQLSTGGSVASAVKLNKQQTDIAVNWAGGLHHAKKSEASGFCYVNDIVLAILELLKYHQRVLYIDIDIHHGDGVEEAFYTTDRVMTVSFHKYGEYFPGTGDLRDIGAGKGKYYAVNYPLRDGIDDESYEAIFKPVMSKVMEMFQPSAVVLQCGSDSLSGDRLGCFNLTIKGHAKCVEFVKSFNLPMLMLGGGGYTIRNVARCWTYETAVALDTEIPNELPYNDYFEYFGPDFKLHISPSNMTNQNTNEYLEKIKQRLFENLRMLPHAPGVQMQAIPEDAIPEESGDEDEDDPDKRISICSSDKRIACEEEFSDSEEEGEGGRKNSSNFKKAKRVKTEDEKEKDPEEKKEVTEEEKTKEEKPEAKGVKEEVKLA
Method: (§3) Purified histone deacetylase enzymes 1, 3, 6, 10 were incubated with fluorescently labeled substrate and test compounds in a standardized reaction mixture in 384 well plates. Upon termination of the reaction, samples were introduced onto microfluidic chips. Samples migrate through channels in the chips and product and substrate are separated based on the difference in their charge and mass (electrophoretic mobility shift). Enzyme activity is measured by direct comparison of the fluorescence in the product and substrate peaks and the results presented in Table 4.

HDAC6 = HDAC6 (Homo sapiens (Human), UniProt Q9UBN7); test: In vitro HDAC enzyme inhibition, mobility shift; format: biochemical; conditions: purified enzyme
Sequence of HDAC6 (Q9UBN7 whole entry): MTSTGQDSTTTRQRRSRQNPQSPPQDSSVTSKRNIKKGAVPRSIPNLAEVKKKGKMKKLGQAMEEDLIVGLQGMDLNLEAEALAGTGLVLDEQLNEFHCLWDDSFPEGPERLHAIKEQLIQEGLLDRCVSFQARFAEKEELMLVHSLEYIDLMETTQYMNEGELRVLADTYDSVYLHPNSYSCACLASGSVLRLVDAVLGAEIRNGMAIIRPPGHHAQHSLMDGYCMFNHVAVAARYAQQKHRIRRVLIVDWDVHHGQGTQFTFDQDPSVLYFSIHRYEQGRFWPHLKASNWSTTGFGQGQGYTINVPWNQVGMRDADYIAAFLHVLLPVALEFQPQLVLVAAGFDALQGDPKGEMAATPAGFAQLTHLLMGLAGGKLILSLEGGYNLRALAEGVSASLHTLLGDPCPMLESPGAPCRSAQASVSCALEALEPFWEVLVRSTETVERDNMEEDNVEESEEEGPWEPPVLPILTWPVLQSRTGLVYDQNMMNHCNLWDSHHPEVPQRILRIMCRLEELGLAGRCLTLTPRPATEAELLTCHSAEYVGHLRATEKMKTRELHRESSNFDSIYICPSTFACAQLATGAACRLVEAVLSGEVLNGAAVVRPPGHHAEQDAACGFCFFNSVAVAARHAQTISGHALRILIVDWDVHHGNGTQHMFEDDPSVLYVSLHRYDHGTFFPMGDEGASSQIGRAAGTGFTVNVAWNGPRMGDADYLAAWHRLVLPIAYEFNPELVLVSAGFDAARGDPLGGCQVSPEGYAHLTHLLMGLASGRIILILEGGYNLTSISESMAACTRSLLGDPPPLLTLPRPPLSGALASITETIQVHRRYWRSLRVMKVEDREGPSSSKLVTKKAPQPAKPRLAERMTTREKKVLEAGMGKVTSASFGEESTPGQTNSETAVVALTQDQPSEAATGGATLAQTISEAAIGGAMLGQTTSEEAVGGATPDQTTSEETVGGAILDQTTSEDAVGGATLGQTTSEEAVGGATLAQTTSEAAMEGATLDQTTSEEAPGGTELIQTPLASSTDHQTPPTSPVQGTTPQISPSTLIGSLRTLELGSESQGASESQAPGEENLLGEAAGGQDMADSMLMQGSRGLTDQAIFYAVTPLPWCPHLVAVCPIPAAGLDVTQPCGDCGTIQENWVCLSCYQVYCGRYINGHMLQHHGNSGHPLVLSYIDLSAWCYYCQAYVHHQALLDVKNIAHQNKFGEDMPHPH
Method: as §3

HDAC10 = HDAC10 (Homo sapiens (Human), UniProt Q969S8); test: In vitro HDAC enzyme inhibition, mobility shift; format: biochemical; conditions: purified enzyme
Sequence of HDAC10 (Q969S8 whole entry): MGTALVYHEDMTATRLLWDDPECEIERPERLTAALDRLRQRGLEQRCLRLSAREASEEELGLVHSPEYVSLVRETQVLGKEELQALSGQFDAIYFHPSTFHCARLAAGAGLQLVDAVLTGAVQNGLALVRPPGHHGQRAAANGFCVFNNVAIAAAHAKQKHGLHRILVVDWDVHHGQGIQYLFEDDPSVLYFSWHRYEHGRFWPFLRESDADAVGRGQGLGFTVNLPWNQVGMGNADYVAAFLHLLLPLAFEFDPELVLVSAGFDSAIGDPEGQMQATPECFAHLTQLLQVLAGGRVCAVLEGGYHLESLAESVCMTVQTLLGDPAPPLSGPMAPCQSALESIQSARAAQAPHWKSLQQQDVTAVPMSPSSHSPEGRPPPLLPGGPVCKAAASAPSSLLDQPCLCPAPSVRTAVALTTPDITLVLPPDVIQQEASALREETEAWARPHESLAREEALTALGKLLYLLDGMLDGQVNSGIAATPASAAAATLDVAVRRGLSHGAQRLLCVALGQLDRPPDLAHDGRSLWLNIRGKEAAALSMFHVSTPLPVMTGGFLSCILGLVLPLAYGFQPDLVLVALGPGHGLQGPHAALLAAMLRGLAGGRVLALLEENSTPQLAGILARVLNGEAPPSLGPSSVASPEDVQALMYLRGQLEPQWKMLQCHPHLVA
Method: as §3

HDAC3 = HDAC3 (Homo sapiens (Human), UniProt O15379); test: In vitro HDAC enzyme inhibition, mobility shift; format: biochemical; conditions: purified enzyme
Sequence of HDAC3 (O15379 whole entry): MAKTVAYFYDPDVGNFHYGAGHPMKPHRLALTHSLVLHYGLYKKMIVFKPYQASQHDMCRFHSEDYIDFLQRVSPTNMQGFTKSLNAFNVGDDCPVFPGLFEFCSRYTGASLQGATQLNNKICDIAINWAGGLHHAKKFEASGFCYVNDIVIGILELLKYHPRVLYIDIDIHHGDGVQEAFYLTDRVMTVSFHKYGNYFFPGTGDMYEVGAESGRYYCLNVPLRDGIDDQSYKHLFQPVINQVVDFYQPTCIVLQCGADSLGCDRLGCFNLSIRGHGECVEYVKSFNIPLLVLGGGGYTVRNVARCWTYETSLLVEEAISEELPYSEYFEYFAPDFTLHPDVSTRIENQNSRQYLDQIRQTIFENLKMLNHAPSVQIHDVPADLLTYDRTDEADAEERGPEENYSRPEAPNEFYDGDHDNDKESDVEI
Sequence of HDAC3 (Q9Y618 395-489 partner): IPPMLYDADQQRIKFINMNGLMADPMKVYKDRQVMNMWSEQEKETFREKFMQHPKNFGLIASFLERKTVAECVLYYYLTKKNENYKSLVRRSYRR
Method: as §3

With `O=C(NO)c1ccc(Nc2nc3ccccc3n2CCC2CCCC2)cc1` [ID #6, 4-((1-(2-cyclopentylethyl)-1H-benzo[d]imidazol-2-yl)amino)-N-hydroxybenzamide] as the compound, how does the pIC50 (MM1.S cells) read?
Its pIC50 is 5.96.

With `O=C(NO)c1ccc(Nc2nc3ccccc3n2CC2CCC(F)(F)CC2)cc1` [ID #7] as the compound, how does the pIC50 (MM1.S cells) read?
The pIC50 was 6.15.

With `O=C(NO)c1ccc(Nc2nc3ccccc3n2C2CCCCC2)cc1` [ID #2, 4-((1-cyclohexyl-1H-benzo[d]imidazol-2-yl)amino)-N-hydroxybenzamide] as the compound, how does the Papp (Permeability (PAMPA)) read?
Its Papp is 1.65 ×10⁻⁶ cm/s.

And the pIC50 (MM1.S cells)?
Its pIC50 is 5.70.

And the half-life (S9 in vitro half-life)?
Its half-life is over 1.5 h.

What about the “AUC0-∞” value ([1]; 1.0 mg/kg IV) of the same compound?
The value was 329.14 ng·h/mL.

And the “AUC % Extrap” value ([1]; 1.0 mg/kg IV)?
Its value is 1.44%.

What about the Cl/F obs ([1]; 1.0 mg/kg IV) of the same compound?
The Cl/F obs was 50.7 mL/min/kg.

What about the “Rsq (>0.85)” value ([1]; 1.0 mg/kg IV) of the same compound?
The value was 0.85.

And the half-life ([1]; 1.0 mg/kg IV)?
The half-life was 1.20 h.

And the “AUC % Extrap” value ([1]; 5.0 mg/kg PO)?
Its value is 0.14%.

What about the Cmax ([1]; 5.0 mg/kg PO) of the same compound?
The Cmax was 407.10 ng/mL.

What about the “Rsq (>0.85)” value ([1]; 5.0 mg/kg PO) of the same compound?
Its value is 1.00.

And the AUC(0-t) ([1]; plasma, 1.0 mg/kg IV)?
Its AUC(0-t) is 324 ng·h/mL.

What about the Tmax ([1]; plasma, 1.0 mg/kg IV) of the same compound?
Its Tmax is 0.08 h.

And the half-life ([1]; plasma, 1.0 mg/kg IV, read-out: Half-life (converted))?
The half-life was 1.2 h.

What about the Vd ([1]; plasma, 1.0 mg/kg IV, read-out: Vss) of the same compound?
Its Vd is 3.5 L/kg.

And the AUC(0-t) ([1]; plasma, 5.0 mg/kg PO)?
Its AUC(0-t) is 1280 ng·h/mL.

What about the CL/F ([1]; plasma, 5.0 mg/kg PO) of the same compound?
Its CL/F is 65.2 mL/min/kg.

What about the Tmax ([1]; plasma, 5.0 mg/kg PO) of the same compound?
The Tmax was 0.5 h.

What about the bioavailability ([1]; plasma, 5.0 mg/kg PO) of the same compound?
The bioavailability was 77.6%.

What about the half-life ([1]; plasma, 5.0 mg/kg PO, read-out: Half-life (converted)) of the same compound?
The half-life was 2.56 h.

What about the Vd/F ([1]; plasma, 5.0 mg/kg PO, read-out: Vz/F obs) of the same compound?
The Vd/F was 14.5 L/kg.

And the AUC(0-inf) ([1]; plasma, iv, 1 mg/kg, 1.0 mg/kg IV, read-out: AUC0-∞)?
Its AUC(0-inf) is 329 ng·h/mL.

And the Cmax ([1]; plasma, iv, 1 mg/kg, 1.0 mg/kg IV, read-out: Cmax)?
Its Cmax is 508 ng/mL.

What about the AUC(0-inf) ([1]; plasma, po, 5 mg/kg, 5.0 mg/kg PO, read-out: AUC0-∞) of the same compound?
Its AUC(0-inf) is 1280 ng·h/mL.

What about the Cmax ([1]; plasma, po, 5 mg/kg, 5.0 mg/kg PO, read-out: Cmax) of the same compound?
Its Cmax is 407 ng/mL.

And the AUC(0-inf) ([1]; plasma, po, 5 mg/kg, 5 mg/kg oral, read-out: AUC0-∞ (overall exposure following oral doses))?
The AUC(0-inf) was 1280 ng·h/mL.

And the IC50 (HDAC1)?
The IC50 was 0.385 µM.

And the IC50 (HDAC6)?
Its IC50 is 0.015 µM.

What about the IC50 (HDAC10) of the same compound?
Its IC50 is 3.56 µM.

And the IC50 (HDAC3)?
Its IC50 is 0.068 µM.

With `O=C(NO)c1ccc(Nc2nc3cc(F)ccc3n2CC2CCC(F)(F)CC2)cc1` [ID #8] as the compound, how does the pIC50 (MM1.S cells) read?
Its pIC50 is 5.92.

With `O=C(NO)c1ccc(Nc2nc3ccccc3n2CC2(F)CCCCC2)cc1` [ID #4] as the compound, how does the pIC50 (MM1.S cells) read?
The pIC50 was 5.59.

With `O=C(NO)c1ccc(Nc2nc3cc(F)ccc3n2CC2CCOCC2)cc1` [ID #10, 4-((5-fluoro-1-((tetrahydro-2H-pyran-4-yl)methyl)-1H-benzo[d]imidazol-2-yl)amino)-N-hydroxybenzamide] as the compound, how does the pIC50 (MM1.S cells) read?
The pIC50 was 5.54.

With `O=C(NO)c1ccc(Nc2nc3ccccc3n2CC2CCOCC2)cc1` [ID #9, N-hydroxy-4-((1-((tetrahydro-2H-pyran-4-yl)methyl)-1H-benzo[d]imidazol-2-yl)amino)benzamide] as the compound, how does the pIC50 (MM1.S cells) read?
The pIC50 was 5.54.

With `O=C(NO)c1ccc(Nc2nc3ccccc3n2CC2CCCC2)cc1` [ID #5, 4-((1-(cyclopentylmethyl)-1H-benzo[d]imidazol-2-yl)amino)-N-hydroxybenzamide] as the compound, how does the pIC50 (MM1.S cells) read?
The pIC50 was 5.66.

Source: patent US11236052B2, “Aminobenzimidazole derivatives, treatments, and methods of inhibiting histone deacetylase” (TRANSLATIONAL DRUG DEVELOPMENT, LLC, priority 2017, dated 2022)
